Where “and” joins values, the source holds several entries; their conditions need not be identical. Identical values can stand only once. Like-named read-outs stand apart in the source and are kept apart here.
Assays:
T. b. gambiense strain = experiment: In vitro antitrypanosomal activities (LILIT, Alamar Blue); format: cell-based, Trypanosoma brucei gambiense
Method: In vitro antitrypanosomal activities against T. b. gambiense strain was described by Otoguro et al. In brief, T. b. gambiense strain was cultured in IMDM with various supplements and 10% heat-inactivated FBS at 37°C, under 5.0% CO2/95% air according to the method of Baltz et al. Ninety five […] of the trypanosomes suspension (2.0–2.5104 trypanosomes/mL for strain GUTat 3.1) was seeded in a 96-well microplate, and […] of a test compound solution (dissolved in 5.0% dimethylsulfoxide) was added followed by incubation for 72 h (long incubation-low inoculation test: LILIT). Ten […] of the fluorescent dye Alamar Blue was added to each well. After incubation for 3–6 h, the resulting solution was read at 528/20 nm excitation wavelength and 590/35 nm emission wavelength by a FLx800 fluorescent plate reader (Bio-Tek Instrument, Inc. Vermont, USA). Data were transferred into a spreadsheet program (Excel). The IC50 values were determined using fluorescent plate reader software (KC-4, Bio-Tek). Successive subcultures were done in 24-well tissue culture plates under the same conditions.

T. b. rhodesiense = conditions: cited from earlier work
people = conditions: cited from earlier work
[1] = Determination of LD50 in mice; conditions: mouse, in vivo, ip; male mice, intraperitoneal, observed 72 h
Method: Male mice were divided into various groups and test compounds were administered in various doses intraperitoneally. […] All behavioral changes and deaths during the observation periods were recorded. The percentage of death at each dose level was then calculated, converted to probits and the LD50 (μM/kg) values were calculated. To observe the health status of the mice, they were monitored 4 times a day. […] For the purpose of ameliorating the suffering of the dying mice, CO2 euthanasia was applied. All the dead mice were disposed in bio-safety containers in accordance with local standard protocols. The mortality rate in each group was calculated according to the formula: Mortalityrate(%)=(thenumberofdeadmice/thenumberofmiceinthegroup)×100.

[2] = Trypanosoma brucei, T. b. gambiense strain GUTat 3.1, 72 h incubation, Alamar Blue fluorescence, read-out: IC50

For “1-(4-Methylbenzenesulfonyl)-N-(quinolin-3-yl)pyrrolidine-2-carboxamide [Compound 11h]”, the IC50 (T. b. gambiense strain; read-out: IC50) was 5 nM and 6 nM.

“1-(4-Nitrobenzenesulfonyl)-N-(quinolin-3-yl)pyrrolidine-2-carboxamide [Compound 11x]” showed an IC50 (T. b. gambiense strain; read-out: IC50) of 3 nM.

“1-(Benzenesulfonyl)-4-hydroxy-N-(quinolin-3-yl)pyrrolidine-2-carboxamide [Compound 11o]” gave an IC50 (T. b. gambiense strain; read-out: IC50) of 3 nM.

For “1-(Benzenesulfonyl)-N-(quinolin-3-yl)pyrrolidine-2-carboxamide [Compound 11p]”, the IC50 (T. b. gambiense strain; read-out: IC50) was 4 nM.

Compound “2-[N-(4-methylbenzenesulfonyl)-1-phenylformamido]-3-phenyl-N-(quinolin-3-yl)propanamide [Compound 11b]” has an IC50 (T. b. gambiense strain; read-out: IC50) of 114 ± 0.05 nM.

In the case of “2-[N-(4-methylbenzenesulfonyl)-1-phenylformamido]-N-(quinolin-3-yl)acetamide [Compound 11a]”, the IC50 (T. b. gambiense strain; read-out: IC50) is reported as 136 ± 0.03 nM.

“2-[N-(4-nitrobenzenesulfonyl)-1-phenylformamido]-3-phenyl-N-(quinolin-3-yl)propanamide [Compound 11r]” gave an IC50 (T. b. gambiense strain; read-out: IC50) of 108 ± 0.09 nM.

Work on “2-[N-(4-nitrobenzenesulfonyl)-1-phenylformamido]-N-(quinolin-3-yl)acetamide [Compound 11q]” yielded an IC50 (T. b. gambiense strain; read-out: IC50) of 128 ± 0.09 nM.

For “2-[N-(benzenesulfonyl)-1-phenylformamido]-3-methyl-N-(quinolin-3-yl)butanamide [Compound 11n]”, the IC50 (T. b. gambiense strain; read-out: IC50) was 1 nM.

In the case of “2-[N-(benzenesulfonyl)-1-phenylformamido]-3-methyl-N-(quinolin-3-yl)pentanamide [Compound 11m]”, the IC50 (T. b. gambiense strain; read-out: IC50) is reported as 125 ± 0.09 nM.

With “2-[N-(benzenesulfonyl)-1-phenylformamido]-3-phenyl-N-(quinolin-3-yl)propanamide [Compound 11j]” the IC50 (T. b. gambiense strain; read-out: IC50) was 116 ± 0.04 nM.

With “2-[N-(benzenesulfonyl)-1-phenylformamido]-4-methyl-N-(quinolin-3-yl)pentanamide [Compound 11l]” the IC50 (T. b. gambiense strain; read-out: IC50) was 125 ± 0.1 nM.

With “2-[N-(benzenesulfonyl)-1-phenylformamido]-N-(quinolin-3-yl)acetamide [Compound 11i]” the IC50 (T. b. gambiense strain; read-out: IC50) was 140 ± 0.03 nM.

For “3-Methyl-2-[N-(4-methylbenzenesulfonyl)-1-phenylformamido]-N-(quinolin-3-yl)butanamide [Compound 11f]”, the IC50 (T. b. gambiense strain; read-out: IC50) was 3 nM.

In the case of “3-Methyl-2-[N-(4-nitrobenzenesulfonyl)-1-phenylformamido]-N-(quinolin-3-yl)butanamide [Compound 11v]”, the IC50 (T. b. gambiense strain; read-out: IC50) is reported as 1 nM.

For “3-Methyl-2-[N-(4-nitrobenzenesulfonyl)-1-phenylformamido]-N-(quinolin-3-yl)pentanamide [Compound 11u]”, the IC50 (T. b. gambiense strain; read-out: IC50) was 114 ± 0.03 nM.

In the case of “4-Hydroxy-1-(4-methylbenzenesulfonyl)-N-(quinolin-3-yl)pyrrolidine-2-carboxamide [Compound 11g]”, the IC50 (T. b. gambiense strain; read-out: IC50) is reported as 2 nM.

For “4-Hydroxy-1-(4-nitrobenzenesulfonyl)-N-(quinolin-3-yl)pyrrolidine-2-carboxamide [Compound 11w]”, the IC50 (T. b. gambiense strain; read-out: IC50) was 2 nM.

With “4-Methyl-2-[N-(4-methylbenzenesulfonyl)-1-phenylformamido]-N-(quinolin-3-yl)pentanamide [Compound 11d]” the IC50 (T. b. gambiense strain; read-out: IC50) was 121 ± 0.05 nM.

Compound “4-Methyl-2-[N-(4-nitrobenzenesulfonyl)-1-phenylformamido]-N-(quinolin-3-yl)pentanamide [Compound 11t]” has an IC50 (T. b. gambiense strain; read-out: IC50) of 114 ± 0.09 nM.

`Cc1ccc(S(=O)(=O)N(C(=O)c2ccccc2)C(Cc2cc3ccccc3[nH]2)C(=O)Nc2cnc3ccccc3c2)cc1` (stereo not shown) [Compound 11c, 3-(1H-indol-2-yl)-2-[N-(4-methylbenzenesulfonyl)-1-phenylformamido]-N-(quinolin-3-yl)propanamide] showed a melting point of 88.1 to 88.8 °C and an IC50 (T. b. gambiense strain; [2]) of 106 ± 0.03 nM.

With `O=C(Nc1cnc2ccccc2c1)C(Cc1cc2ccccc2[nH]1)N(C(=O)c1ccccc1)S(=O)(=O)c1ccccc1` (stereo not shown) [Compound 11k, 2-[N-(benzenesulfonyl)-1-phenylformamido]-3-(1H-indol-2-yl)-N-(quinolin-3-yl)propanamide] the melting point was 73.5 to 73.8 °C and the IC50 (T. b. gambiense strain; [2]) was 109 ± 0.08 nM.

For `NCCCC(N)(C(=O)O)C(F)F` (stereo not shown) [Eflornithine], the “effectiveness against T. b. rhodesiense” value (T. b. rhodesiense) is given as “ineffective”.

For `Nc1nc(N)nc(Nc2ccc([As]3SCC(CO)S3)cc2)n1` (stereo not shown) [melarsoprol], the IC50 (T. b. gambiense strain; Trypanosoma brucei, GAMBIENSE, 72 h) is given as 5 nM, the “people who die from adverse effects related to treatment” value (people) is given as 1–5% and the LD50 at 72 h [1] is given as 7.21 ± 0.28 µmol/kg.
